# Assay results published in ChEMBL document CHEMBL4673175, “An epigrammatic status of the azole-based antimalarial drugs” (RSC Med Chem, 2020).
# Legend:
# Plasmodium falciparum [1] = assay: Antiplasmodial activity against chloroquine sensitive Plasmodium falciparum FCR-3 infected in human erythrocytes incubated for 72 hrs by giemsa staining based assay; type: functional, organism-based; settings: FCR-3, 72 h
# [2] = Selectivity index, ratio of EC50 for cytotoxicity against […] cells to EC50 for antiplasmodial activity against Plasmodium falciparum FCR-3 ATCC 30932 infected in human erythrocytes; type: toxicity, cell-based; settings: mouse, read-out: Ratio EC50
# Plasmodium falciparum [3] = assay: Antiplasmodial activity against chloroquine sensitive Plasmodium falciparum D10; type: functional, organism-based
# [4] = system: Falcipain-2 (Plasmodium falciparum); assay: Inhibition of Plasmodium falciparum falcipain-2 in enzyme assay
# Plasmodium falciparum [5] = assay: Antimalarial activity against chloroquine resistant Plasmodium falciparum; type: functional, organism-based
# Plasmodium falciparum [6] = assay: Antimalarial activity against chloroquine sensitive Plasmodium falciparum; type: functional, organism-based
# Plasmodium falciparum [7] = assay: Antiplasmodial activity against chloroquine-resistant/mefloquine resistant early ring stage Plasmodium falciparum Dd2 by whole-cell SYBR Green I based assay; type: functional, organism-based
# Plasmodium falciparum [8] = assay: Antiplasmodial activity against chloroquine-sensitive/mefloquine resistant early ring stage Plasmodium falciparum 3D7 by whole-cell SYBR Green I based assay; type: functional, organism-based
# Plasmodium falciparum [9] = assay: Antiplasmodial activity against Plasmodium falciparum IPC5202 by whole-cell SYBR Green I based assay; type: functional, organism-based
# Plasmodium falciparum [10] = assay: Antiplasmodial activity against Plasmodium falciparum IPC4912 by whole-cell SYBR Green I based assay; type: functional, organism-based
# [11] = biological target: T1, Enoyl-acyl-carrier protein reductase (Plasmodium falciparum, UniProt Q965D5); assay: Inhibition of Plasmodium falciparum enoyl-ACP reductase using crotonoyl-CoA as substrate by UV-Vis spectrophotometric method
# T1 sequence (Q965D5 whole entry): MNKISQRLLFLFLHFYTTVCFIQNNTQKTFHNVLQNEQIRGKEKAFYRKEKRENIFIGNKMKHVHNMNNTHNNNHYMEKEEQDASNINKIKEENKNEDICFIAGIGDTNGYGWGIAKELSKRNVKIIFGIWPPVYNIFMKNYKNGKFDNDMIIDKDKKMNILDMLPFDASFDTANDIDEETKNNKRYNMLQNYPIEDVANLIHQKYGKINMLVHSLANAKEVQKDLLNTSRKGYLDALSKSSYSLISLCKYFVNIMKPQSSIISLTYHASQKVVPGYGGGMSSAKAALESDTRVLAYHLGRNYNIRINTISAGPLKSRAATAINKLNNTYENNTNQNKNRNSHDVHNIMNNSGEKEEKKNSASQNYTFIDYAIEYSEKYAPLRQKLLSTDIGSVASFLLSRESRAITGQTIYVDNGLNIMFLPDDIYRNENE
# Plasmodium berghei [12] = assay: Antimalarial activity against Plasmodium berghei ANKA infected in Swiss albino mouse assessed as parasitemia suppression at 50 micromol/kg, po administered for 4 days and measured at 24 hrs post-last dose by Giemsa staining based microscopic method relative to control; type: functional; settings: dose 50 µmol/kg; time 4 day
# Plasmodium falciparum [13] = assay: Antimalarial activity against chloroquine resistant Plasmodium falciparum RKL9 assessed as reduction in schizont maturation incubated for 24 hrs by Giemsa staining based assay; type: functional, organism-based; settings: RKL9, 24 h
# Plasmodium falciparum [14] = assay: Antimalarial activity against Plasmodium falciparum assessed as reduction in [3H]-hypoxanthine incorporation into DNA incubated for 36 hrs by beta counter method; type: functional, organism-based
# Plasmodium falciparum [15] = assay: Antiplasmodial activity against chloroquine resistant Plasmodium falciparum Dd2; type: functional, organism-based
# Plasmodium falciparum [16] = assay: Antimalarial activity against chloroquine-resistant ring-stage Plasmodium falciparum W2 infected in human erythrocytes by HRP2 assay; type: functional, organism-based
# Plasmodium falciparum [17] = assay: Antimalarial activity against chloroquine resistant Plasmodium falciparum incubated for 24 to 48 hrs by Giemsa staining based assay; type: functional, organism-based
# Plasmodium falciparum [18] = assay: Antimalarial activity against chloroquine sensitive Plasmodium falciparum incubated for 24 to 48 hrs by Giemsa staining based assay; type: functional, organism-based
# Plasmodium falciparum [19] = assay: Antimalarial activity against chloroquine sensitive Plasmodium falciparum 3D7 assessed as reduction in schizont maturation incubated for 24 hrs by Giemsa staining based assay; type: functional, organism-based; settings: 3D7, 24 h
# Plasmodium falciparum [20] = assay: Antimalarial activity against chloroquine sensitive Plasmodium falciparum 3D7 incubated for 72 hrs by JSB1/JSB2 staining based assay; type: functional, organism-based; settings: 3D7, 72 h
# Hemozoin = assay: Inhibition of beta-hematin formation at 5 to 100 mM incubated for 48 hrs; settings: dose 5-100 mM
# Plasmodium berghei [21] = assay: Antimalarial activity against Plasmodium berghei ANKA infected in Balb-C mouse assessed as mouse survival time at 10 mg/kg, ip administered once per day for 4 consecutive days (reference value: 8.20 +/- 0.20 days); type: functional; settings: time 4 day
# Plasmodium berghei [22] = assay: Antimalarial activity against Plasmodium berghei ANKA infected in Balb-C mouse assessed as parasitemia at 10 mg/kg, ip administered once daily for 4 consecutive days by Giemsa staining based assay relative to control; type: functional; settings: time 4 day
smiles,measurement,setting,value
CCn1c(=O)/c(=C2\Sc3ccccc3N2C)s/c1=C/c1cc[n+](CCCCC(=O)O)cc1,EC50,Plasmodium falciparum [1],4 nM
same,selectivity ratio,[2],> 100
COc1ccc(CN2CC2Cn2cc(-c3ccccc3)nn2)cc1 (stereo unspecified),IC50,Plasmodium falciparum [3],≤ 25000 nM
COc1cccc(/C=C(/C#N)c2nc3ccccc3[nH]2)c1,IC50,[4],690 nM
Clc1ccccc1C(c1ccccc1)(c1ccccc1)n1ccnc1 [CLOTRIMAZOLE],IC50,Plasmodium falciparum [5],200 nM
same,IC50,Plasmodium falciparum [6],200 nM
Cn1nnnc1NCC1CCC2(CC1)OOC1(O2)C2CC3CC(C2)CC1C3 (stereo unspecified),IC50,Plasmodium falciparum [7],0.3 nM
same,IC50,Plasmodium falciparum [8],0.3 nM
same,IC50,Plasmodium falciparum [9],0.3 nM
same,IC50,Plasmodium falciparum [10],0.3 nM
Cc1ccc(-c2nn(-c3nccc(C(F)(F)F)n3)cc2C=O)cc1,IC50,[11],30000 nM
CCn1c(=O)/c(=C2\Sc3ccccc3N2C)s/c1=C\c1cccc[n+]1C,EC50,Plasmodium falciparum [1],4 nM
same,selectivity ratio,[2],> 100
O=Cc1cn(-c2ccc(Cl)cc2)nc1-c1ccccc1,Activity,Plasmodium berghei [12],83%
same,IC50,Plasmodium falciparum [13],33 nM
COC(=O)c1c(Nc2cccc(OC)c2)n[nH]c1N,IC50,Plasmodium falciparum [14],140 nM
N#Cc1c(Nc2ccccc2)n[nH]c1N,IC50,Plasmodium falciparum [14],140 nM
Cc1ccc(-c2cn(CC3CN3Cc3ccccc3)nn2)cc1 (stereo unspecified),IC50,Plasmodium falciparum [3],≤ 25000 nM
same,IC50,Plasmodium falciparum [15],≤ 25000 nM
CCn1c(=O)/c(=C2\Sc3ccccc3N2C)s/c1=C\c1cccc(-c2ccccc2)[n+]1C,EC50,Plasmodium falciparum [1],4 nM
same,selectivity ratio,[2],> 100
Clc1ccc2c(-n3cc(-c4ccccc4)nn3)ccnc2c1,IC50,Plasmodium falciparum [16],1400 nM
CN1/C(=c2\s/c(=C\c3cccc[n+]3C)n(Cc3ccccc3)c2=O)Sc2ccccc21,EC50,Plasmodium falciparum [1],4 nM
same,selectivity ratio,[2],> 100
CNCC(Cn1cc(-c2ccccc2)nn1)NCc1ccccc1Cl (stereo unspecified),IC50,Plasmodium falciparum [3],≤ 25000 nM
same,IC50,Plasmodium falciparum [15],≤ 25000 nM
CC(C)n1c(CC(N)C(=O)O)cnc1Cc1ccccc1 (stereo unspecified),IC50,Plasmodium falciparum [17],10000 nM
same,IC50,Plasmodium falciparum [18],10000 nM
CC(C)(C)c1nc(CC(N)C(=O)O)c[nH]1 (stereo unspecified),IC50,Plasmodium falciparum [17],10000 nM
same,IC50,Plasmodium falciparum [18],10000 nM
Clc1ccccc1CN1CC1Cn1cc(-c2ccccc2)nn1 (stereo unspecified),IC50,Plasmodium falciparum [15],≤ 25000 nM
O=[N+]([O-])c1ccc(N/N=C/c2cn(-c3ccc(Cl)cc3)nc2-c2ccccc2)c([N+](=O)[O-])c1,IC50,Plasmodium falciparum [13],33 nM
COC(=O)c1c(Nc2ccccc2)n[nH]c1N,IC50,Plasmodium falciparum [14],140 nM
CCOC(=O)C1=CNC(C)=C(C(=O)OCC)C1c1ccc(OCC(=O)N/N=C/c2cn(-c3ccccc3)nc2-c2ccccc2)cc1 (stereo unspecified),IC50,Plasmodium falciparum [19],4.4 nM
COc1ccc(-n2cc(C3CC(c4ccc(N)cc4)=NN3C(N)=S)c(-c3ccccc3)n2)cc1 (stereo unspecified),IC50,Plasmodium falciparum [20],< 5000 nM
CC(C)n1cncc1CCN,IC50,Plasmodium falciparum [17],10000 nM
same,IC50,Plasmodium falciparum [18],10000 nM
C=CCn1c(=O)/c(=C2\Sc3ccccc3N2C)s/c1=C\c1cc[n+](C)cc1,EC50,Plasmodium falciparum [1],4 nM
same,selectivity ratio,[2],> 100
CC(C)(C)c1nc(CCN)c[nH]1,IC50,Plasmodium falciparum [17],10000 nM
same,IC50,Plasmodium falciparum [18],10000 nM
CCNCC(Cn1cc(-c2ccccc2)nn1)NCc1ccccc1 (stereo unspecified),IC50,Plasmodium falciparum [3],≤ 25000 nM
CCOC(=O)c1cn(-c2ccnc3cc(Cl)ccc23)nn1,IC50,Plasmodium falciparum [16],1400 nM
Clc1ccc(COC(Cn2ccnc2)c2ccc(Cl)cc2Cl)c(Cl)c1 (stereo unspecified) [MICONAZOLE],IC50,Plasmodium falciparum [5],200 nM
same,IC50,Plasmodium falciparum [6],200 nM
FC(F)c1cn(-c2ccnc3cc(Cl)ccc23)nn1,IC50,Plasmodium falciparum [16],1400 nM
CC(C)c1nc(CCN)c[nH]1,IC50,Plasmodium falciparum [17],10000 nM
same,IC50,Plasmodium falciparum [18],10000 nM
C=CCn1c(=O)/c(=C2\Sc3ccccc3N2C)s/c1=C\c1cccc[n+]1C,EC50,Plasmodium falciparum [1],4 nM
same,selectivity ratio,[2],> 100
COc1cccc(Nc2n[nH]c(N)c2C#N)c1,IC50,Plasmodium falciparum [14],140 nM
COc1ccccc1Nc1n[nH]c(N)c1C#N,IC50,Plasmodium falciparum [14],140 nM
COc1ccc(/C=C(\C#N)c2nc3ccccc3[nH]2)cc1O,IC50,[4],690 nM
Cc1ccc(NC(=O)c2ccc3[nH]c(-c4ccc([N+](=O)[O-])o4)nc3c2)c(C)c1,inhibition,Hemozoin,< 98%
same,Time,Plasmodium berghei [21],20.2 days
same,Activity,Plasmodium berghei [22],3.05%
